These are literature values, as cited in patent publication US4923986A, “Derivatives of physiologically active substance K-252” (Kyowa Hakko Kogyo Co., Ltd., priority 1988, dated 1990).

Series [1] relates to C-kinase. Conditions: literature, in words; cited from earlier work.
The conditions of series [2]: literature, in words; cited from earlier work.
Series [3] concerns histamine release. Conditions: literature, in words; cited from earlier work.
The conditions of series [4]: literature, in words; cited from earlier work. The source holds these as a separate data set.

Regarding `NCCCCCCNS(=O)(=O)c1cccc2c(Cl)cccc12` [Compound W-7, N-(6-aminohexy)-5-chloro-1-naphthalenesulfonamide], the C-kinase inhibitory activity entry in series [1] was “low”.
For `CN[C@@H]1C[C@H]2O[C@@](C)([C@@H]1OC)n1c3ccccc3c3c4c(c5c6ccccc6n2c5c31)C(=O)NC4` [Staurosporine], the antibacterial activity entry in series [2] is reported as “antibacterial activity”.
As for `COC(=O)[C@@]1(O)C[C@H]2O[C@]1(C)n1c3ccccc3c3c4c(c5c6ccccc6n2c5c31)C(=O)NC4` (relative stereo) [Compound K-252], the “activity to inhibit histamine release” value in series [3] is “activity to inhibit histamine release”. In addition, in series [4], the anti-allergic activity entry is given as “anti-allergic activity”. Further, the antibacterial activity result in series [2] is “antibacterial substances”.
Regarding `CCCCNc1ccc(C(=O)OCCN(C)C)cc1` [tetracaine], the C-kinase inhibitory activity entry in series [1] is reported as “low”.
`CN1CCN(CCCN2c3ccccc3Sc3ccc(C(F)(F)F)cc32)CC1` [trifluoperazine]: the C-kinase inhibitory activity result in series [1] is given as “low”.
As to `C[C@]12O[C@H](C[C@]1(O)C(=O)O)n1c3ccccc3c3c4c(c5c6ccccc6n2c5c31)CNC4=O` (relative stereo) [KT-5556], in series [3], the “activity to inhibit histamine release” value is listed as “activity to inhibit histamine release”. Further, in series [2], the antibacterial activity result is on record as “antibacterial substances”.
